From patent US20240325375A1, “Effect of YEL002 on Psychological and Psychiatric Factors in Health and Disease” (RadMit, Inc., priority 2023, published 2024)

Assays:
Effects on pets (cats) = format: in vivo; details: cats after treatment
Protocol: Effects on pets. My cats, Susie and Celine were the sweetest cats before I started to treat them. But after treatment they are now even sweeter, cuddlier and more attached to me, and sleep 2 hours longer per day. I call them lap cats now like the dog pendant. They lost loofiness, shyness to new visitors, quietly sit next to each other and licking each other or me and just want to sit close to me or on my lap and be petted. Before after 5 to 10 minutes of petting they just left and did something else. Now they stay for hours and the only reason for them to leave is when I stop petting them. And they are even better at play and jump exactly, landing where they intend to, don't bump into things and catch the toys the first time every time.

irradiated mice = assay: Radiation mitigation in mice irradiated with an LD100; format: in vivo
[1] = test system: three different cancer cell lines; assay: Radiation killing of cancer cell lines; format: cell-based
Source text: (§1) It is also observed that three different cancer cell lines were not protected from radiation killing by YEL002, which indicates a use in radiation oncology or chemotherapy where the tumor can still be killed by the radiation, or chemotherapy but YEL002 protects the rest of the body from radiation or chemotherapy damage, and inhibits secondary carcinogenesis.

Solubility of the powder = format: physicochemical; details: off-white powder
Protocol: The compound takes the appearance of an off-white powder and is fat soluble. One takes an eighth teaspoon or about 0.5 g dissolved in a couple of teaspoons of oil. In an exemplary embodiment, it is dissolved in grape seed or any other appropriate oil and taken twice a day, once in the morning and once in the evening. It is easy to use and has almost no taste.

Covid virus = format: in vivo; details: compared with without YEL002
[2] = Side effects and blood thinning; format: in vivo
Protocol: Thus, if nose bleeding occurs at that dose when blowing one's nose, one should reduce the dose to half and nose bleeding will stop within about 12 hours or less. Once the flue or sneezing is gone one may increase the dose again.
as §1

human keratinocytes = assay: Proteomics study of protein induction; format: cell-based
Source text: In terms of mechanism of action in a proteomics study, the chemical was capable of inducing 244 different proteins in human keratinocytes, which comprised anti-inflammatory proteins, DNA repair proteins, and 9 neuroprotective proteins. It is known that turtles at the Galapagos Islands live 150 or more years without cancer and have multiple copies of DNA repair genes and anti-inflammatory genes. The compound boosts the expression of these genes in mammals. Since it induces DNA repair and is anti-inflammatory, it may be possible to prevent and cure many diseases and extend the life.
A direct effect of YEL002 on the autonomic or sympathetic nervous system, the flight or fight response, which can explain all the effects that we find.

[3] = Clinical trial on psychological, psychiatric and memory loss endpoints; format: in vivo, human
Source text: 7 less argumentative, 10 less angry or aggressive. 8 experienced better quality sleep. 8 needed less sleep and 5 became nicer. It gets rid of addictions and reduces symptoms of depression and Alzheimer's disease.

ATM-deficient mice = assay: Lifespan of ATM-deficient mice injected weekly; format: in vivo; details: ATM-deficient mice injected every week during most of their lifespans
Source text: It is speculated that this is because the primary screen applied was against radiation-induced toxicity as well as genotoxicity which causes cancer. Researchers involved in other labs were screening only against radiation-induced toxicity and thereby cells with genotoxicity survive and cause even more cancer and late effects of which surviving mice died. In our experiments, however, a screen against radiation induced toxicity as well as genetic instability made sure that the surviving cells also had no genetic instability which otherwise would have led to an increase in cancer and other diseases. In the experiment, ATM-deficient mice injected every week with YEL002 during most of their lifespans lived 33% longer than without injections.

lymphoma = assay: Lymphoma incidence in mice (National Institute of Health experiment); format: in vivo; details: radiation exposure caused 90% to develop lymphoma without treatment
Protocol: In another experiment at the National Institute of Health, in other mice after radiation exposure which caused 90% of them to develop lymphoma, there was a reduction of the lymphoma incidence to 40% and the spontaneous frequency was reduced from 10-20% down to 0%. […] This was observed after treating mice right after birth, if humans are treated later in life it is possible that only 10 or 5 years are added and probably more for DNA repair deficient diseases like ataxia telangiectasia (ATM) which is still very substantial, especially, since it treats and reduces the likelihood of many diseases.

[4] = PHQ-9 assessment of a patient with recalcitrant depression; format: in vivo, human
Protocol: If they work at all, improvements take at least 4 weeks and may increase patient weight. In this patient's assessment using a standard PHQ-9 form, the patient was assessed before and after treatment with YEL002. The PHQ-9 form assigns a numerical value corresponding to the level of depression, meaning a higher level means increased depression values. In this patient, before treatment, the values was in 3 different instances 6, 9 and 15 with designation of “very difficult” and “extremely difficult” and they cried 3 times during 30 minutes of our interview and said they hate the world. Before the test indicates mild depression to moderately severe depression. […] Since there is no lower designation this indicates no depression. This is also called snapping out of depression, which was a technical term in the past because it was not observed before now.

[5] = Case studies and patient testimonials; format: in vivo, human
[6] = heavy smoker, one week after treatment
[7] = subject on chemotherapy, one week on YEL002

## COc1ccc2cc(-c3nc4ccc(C)cn4c3NCc3ccco3)c(=O)[nH]c2c1 [YEL002]
Effects on pets (cats)
  cats sleep longer: 2 hours per day
Irradiated mice; LD100 radiation, IP injection 24 hours after radiation and another four doses in 24 hours intervals, without it 100% died after 10 to 15 days
  survival of irradiated mice: 100%
Irradiated mice; many of the surviving mice, normal life span
  life span of surviving irradiated mice: more than 2 years
[1]
  protection of cancer cell lines from radiation killing: not protected
Solubility of the powder
  solubility: fat soluble
Covid virus
  clearance of Covid virus: cleared faster
[2]; about 1 gram per day, nose bleeding stops within about 12 hours or less at half dose
  blood-thinning; nose bleeding at the dose: blood-thinning properties
[2]; in vivo
  side effects: no side effects
Human keratinocytes; human keratinocytes, anti-inflammatory, DNA repair and neuroprotective proteins
  number of different proteins induced: 244 proteins
Human keratinocytes; proteomics
  number of neuroprotective proteins/functions induced: 9
[3]
  became nicer: 5 people
  experienced better quality sleep: 8 people
  felt more energetic: 10 people
  less angry or aggressive: 10 people
  less argumentative: 7 people
  less combative: 7 people
  less tired: 5 people
  needed less sleep: 8 people
ATM-deficient mice
  lived longer than without injections: 33%
lymphoma
  lymphoma incidence after radiation exposure: 40%
[4]; after one week on YEL002, the following two weeks, before treatment 6, 9 and 15
  PHQ-9 value after treatment: 3
[4]; before treatment very difficult and extremely difficult
  PHQ-9 difficulty designation after treatment: somewhat difficult
[4]; person with depression for 20 years, within one week
  recalcitrant depression outcome: completely cured
[5]; after 4 weeks treatment
  memory of patient with Alzheimer's disease: improved
[5]; after two days of treatment
  cholesterol: normal
[5]; case study, used for eight weeks
  symptoms of coughing and diarrhea: reduced symptoms of coughing and diarrhea
[5]; dissolved in oil, nose spray 2-4 times a day
  allergic attacks such as sneezing and runny nose: completely prevented
[5]; [6]
  hair loss: completely stopped
  smoker's legs oozing lymph liquid: completely healed
[5]; in only 4 weeks
  astigmatism fixed: 1
  eye-sight deficiency fixed: 2 diopters
[5]; one hour after treatment
  coughing and wheezing symptoms post-chemotherapy: completely alleviated
[5]; patient testimonial
  blood: thinner
[5]; patient with long COVID19 and diabetes, 5-10 before treatment
  major arguments with spouse: 0-1 per day
[5]; remembers where they left their car
  memory of another person: much improved
[5]; [7]
  vomiting under chemotherapy: completely stopped
  weight gained: 2 kg
[5]; twice elevated for 25 years, after two days of treatment
  levels of liver damage: normal and below the cutoff
[5]; two alcoholics
  alcohol addiction: completely cured
[5]; user study
  periodontics or receding gums: healed
